# Results published in paper PMC3688767, “Lipoprotein FtsB in Streptococcus pyogenes Binds Ferrichrome in Two Steps with Residues Tyr137 and Trp204 as Critical Ligands” (PLoS ONE, 2013).
# “And” between values parts separate entries of the source, which are not always exact repeats. Equal entries are not always repeated. Square brackets hold non-standard residues; d marks the D form. Peptide text beside a SMILES is read from it. Orn(N5-OH,N5-Ac) = CC(=O)N(O)CCC[C@H](N)C(=O)O
# What was measured:
# WT FtsB [1] = target: T1, WT FtsB (Streptococcus pyogenes, UniProt Q9A198); assay: Fluorescence quenching titration of ferrichrome binding, Hill plot
# Method: (§1) The interaction between FtsB and Fch was investigated in a fluorescence spectroﬂuorimeter (Hitachi F7000), in which the excitation wavelength was 280 nm (slit width of 2.5 nm) and the emission wavelength was between 290 and 500 nm (slit width of 10 nm). Aliquots of Fch (1 mM stock solution) were gradually added to 1 mL FtsB solution (1.5 µM, in 20 mM Tris–HCl, pH 7.2). Fluorescence spectra were collected after each titration until the spectra were stable. The data were analyzed with Hill plot in Origin 7.5 to acquire the binding capability and dissociation constant (K d). pH dependent Fch binding with FtsB was also examined in the same buffer with pH 3.2–9.2.
# WT FtsB [2] = target: T1, WT FtsB; assay: Stopped-flow fluorescence binding kinetics; settings: WT FtsB 10 µM mixed with Fch 1∶1, 25°C, pH 7.2, second-order exponential fit; listed as Fch
# Method: (§2) Binding kinetics experiments were carried out using a stopped-ﬂow ﬂuorescence spectrometer (Applied Photophysics, SX200) at 25°C. The excitation wavelength was 280 nm and the ﬂuorescence emission was measured using a high-pass filter with a 320 nm cutoff. Binding reaction was initiated by mixing 10 µM FtsB in 20 mM Tris-HCl (pH 7.2) with Fch in a 1∶1 ratio. Kinetics experiments were performed 5 times, and data were analyzed with a second-order or first-order exponential function offered by Origin 7.5 software.
# FtsB mutant Y137A [3] = target: T2, FtsB mutant Y137A (Streptococcus pyogenes, UniProt Q9A198, Y137A); assay: Stopped-flow fluorescence binding kinetics; settings: Y137A 10 µM mixed with Fch 1∶1, 25°C, pH 7.2, first-order exponential fit; listed as Fch
# T2 sequence (Q9A198 21-310 Y137A): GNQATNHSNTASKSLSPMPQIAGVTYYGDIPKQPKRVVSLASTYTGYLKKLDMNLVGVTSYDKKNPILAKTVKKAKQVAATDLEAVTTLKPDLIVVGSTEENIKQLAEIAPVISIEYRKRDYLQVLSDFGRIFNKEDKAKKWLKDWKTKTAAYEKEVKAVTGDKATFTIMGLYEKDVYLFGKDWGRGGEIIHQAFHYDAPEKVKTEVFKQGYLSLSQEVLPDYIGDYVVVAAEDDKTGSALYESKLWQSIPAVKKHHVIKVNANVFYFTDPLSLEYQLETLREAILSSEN
# Method: as §2
# FtsB mutant E120A = target: T3, FtsB mutant E120A (Streptococcus pyogenes, UniProt Q9A198, E120A); assay: Fluorescence quenching titration of ferrichrome binding, Hill plot; settings: 20 mM Tris-HCl, pH 7.2, read-out: Dissociation constant K d
# T3 sequence (Q9A198 21-310 E120A): T2 sequence (Q9A198 21-310 Y137A)
# Method: (§3) E120A, Y137A, W204A and Y287A mutants were constructed by QuikChange mutagenesis kit (Stratagene) with the wild-type ftsb plasmid as a template, using primers summarized in Table 1. To further study the collective contribution of Glu120, Tyr137, Trp204 and Tyr287 to the Fch binding of FtsB, a tetra-point mutation E120A/Y137A/W204A/Y287A was produced by mutating these four amino acids to alanine simultaneously. The PCR reactions were performed as follows: denaturation at 95°C for 30 s, followed by 16 cycles with denaturation at 95°C for 30 s, annealing at 55°C for 1 min, and extension at 68°C for 6 min [14]. The mutant plasmids were transformed into E. coli XL1-blue for sequencing (Invitrogen). The mutant plasmid with correct sequence was transformed into E. coli BL21 (DE3) star competent cells for subsequent expression. Expression and purification of the FtsB mutants were carried out by following the same protocol as for the wild-type protein.
# as §1
# FtsB mutant Y287A = target: T4, FtsB mutant Y287A (Streptococcus pyogenes, UniProt Q9A198, Y287A); assay: as above; settings: 20 mM Tris-HCl, pH 7.2, read-out: Dissociation constant K d
# T4 sequence (Q9A198 21-310 Y287A): T2 sequence (Q9A198 21-310 Y137A)
# Method: as §3, §1
# FtsB mutant Y137A [4] = target: T2, FtsB mutant Y137A; assay: as above
# Method: as §3, §1
# [5] = target: T5, FtsB Tetra mutant E120A/Y137A/W204A/Y287A (Streptococcus pyogenes, UniProt Q9A198, E120A/W204A/Y137A/Y287A); assay: as above; settings: 20 mM Tris-HCl, pH 7.2, may be no-specific interaction, read-out: Dissociation constant K d
# T5 sequence (Q9A198 21-310 E120A/Y137A/W204A/Y287A): T2 sequence (Q9A198 21-310 Y137A)
# Method: as §3, §1
# FtsB mutant W204A = target: T6, FtsB mutant W204A (Streptococcus pyogenes, UniProt Q9A198, W204A); assay: as above
# T6 sequence (Q9A198 21-310 W204A): T2 sequence (Q9A198 21-310 Y137A)
# Method: as §3, §1
structure (smiles),measurement,setting,value
"CC(=O)N([O-])CCC[C@@H]1NC(=O)CNC(=O)CNC(=O)CNC(=O)[C@H](CCCN([O-])C(C)=O)NC(=O)[C@H](CCCN([O-])C(C)=O)NC1=O.[Fe+3] [ferrichrome, Ferrichrome] (cyclo(GGG[Orn(N5-OH,N5-Ac)][Orn(N5-OH,N5-Ac)][Orn(N5-OH,N5-Ac)]))",Kd,"WT FtsB [1]; WT FtsB 1.5 µM, 20 mM Tris-HCl, pH 7.2, read-out: Dissociation constant K d",400 ± 20 nM
same,pH of maximal binding,WT FtsB [1]; pH dependence examined at pH 3.2–9.2,7.2
same,fast rate constant k1,WT FtsB [2],180.2 ± 5.4 s⁻¹ and 180 s⁻¹
same,slow rate constant k2,WT FtsB [2],18.7 ± 1.3 s⁻¹
same,rate constant k,FtsB mutant Y137A [3],191.6 ± 7.6 s⁻¹ and 191 s⁻¹
same,Kd,FtsB mutant E120A,520 ± 30 nM
same,Kd,FtsB mutant Y287A,520 ± 20 nM
same,folds higher K d in comparison with WT,FtsB mutant Y137A [4]; Y137A mutant vs WT FtsB,10–20 folds
same,Kd,"FtsB mutant Y137A [4]; Y137A mutant, 20 mM Tris-HCl, pH 7.2, read-out: Dissociation constant K d",3700 ± 100 nM
same,Kd,[5],43900 ± 2500 nM
same,folds higher K d in comparison with WT,FtsB mutant W204A; W204A mutant vs WT FtsB,10–20 folds
same,Kd,"FtsB mutant W204A; W204A mutant, 20 mM Tris-HCl, pH 7.2, read-out: Dissociation constant K d",7050 ± 80 nM
